Measured values from patent US10167262B2, “Herbicidal substituted 3-arylpyrazoles” (FMC CORPORATION, priority 2014, dated 2019).

Tests used:
Assay type in all cases: in vivo
[1] = test system: barnyardgrass (Echinochloa crus-galli); assay: Test C pre-/postemergence greenhouse test, plant response rating 0-100
Method in brief: (§1)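 After treatment, pots stay in the greenhouse 13–15 days before each species is compared with untreated controls and given a 0–100 visual score. Preemergence seeds are in loam blended with sand; postemergence plants, 1–4 leaves, are in peat-based medium.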

[2] = test system: oilseed rape (Brassica napus); assay: as above
Method in brief: as §1

[3] = test system: waterhemp (common waterhemp, Amaranthus rudis); assay: as above
Method in brief: as §1

[4] = test system: bermudagrass (Cynodon dactylon); assay: Test C postemergence greenhouse test, plant response rating 0-100
Method in brief: (§2)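 Scores run from 0, meaning no effect, to 100, meaning complete control, and come from visual comparison with untreated controls. Treatment was a postemergence application to plants 2–18 cm tall. Assessment followed 13 to 15 days of greenhouse growth.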

[5] = test system: cocklebur (common cocklebur, Xanthium strumarium); assay: as above
Method in brief: as §2

[6] = test system: surinam grass (Brachiaria decumbens); assay: as above
Method in brief: as §2

[7] = test system: goosegrass (Eleusine indica); assay: Test E pre-/postemergence greenhouse test, plant response rating 0-100; conditions: Preemergence, scale 0 to 100
[8] = test system: ragweed (common ragweed, Ambrosia elatior); assay: as above; conditions: Preemergence, scale 0 to 100
Method in brief: (§3)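 Visual control score, 0–100 relative to untreated plants, recorded 14–21 days after spraying. Treatments: preemergence on silt loam seedbeds and postemergence at the 1- to 4-leaf stage, with compound in surfactant-containing solvent.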

[9] = test system: surinam grass (Brachiaria decumbens); assay: as above; conditions: Preemergence, scale 0 to 100
Method in brief: as §3

[10] = test system: velvetleaf (Abutilon theophrasti); assay: as above; conditions: Preemergence, scale 0 to 100
Method in brief: as §3

[11] = test system: smartweed (ladysthumb smartweed, Polygonum persicaria); assay: as above; conditions: scale 0 to 100; for Smartweed plant response rating: Preemergence
[12] = Postemergence, 250 g ai/ha, scale 0 to 100
[13] = Postemergence, 500 g ai/ha, scale 0 to 100

C#CCn1cc(C(=O)c2ccccc2)c(-c2cc(Cl)cc(Cl)c2)n1 [Compound 39, [3-(3,5-dichlorophenyl)-1-(2-propyn-1-yl)-1H-pyrazol-4-yl]phenylmethanone]
Plant response rating, Barnyardgrass ([1]; Preemergence, 62 g ai/ha): 0
Plant response rating, Barnyardgrass ([1]; Preemergence, 125 g ai/ha): 0
Plant response rating, Barnyardgrass ([1]; Preemergence, 250 g ai/ha): 0
Plant response rating, Barnyardgrass ([1]; Preemergence, 500 g ai/ha): 0
Plant response rating, Oilseed Rape ([2]; Preemergence, 62 g ai/ha): 0
Plant response rating, Oilseed Rape ([2]; Preemergence, 125 g ai/ha): 30
Plant response rating, Oilseed Rape ([2]; Preemergence, 250 g ai/ha): 50
Plant response rating, Oilseed Rape ([2]; Preemergence, 500 g ai/ha): 80
Plant response rating, Waterhemp ([3]; Preemergence, 62 g ai/ha): 75
Plant response rating, Waterhemp ([3]; Preemergence, 125 g ai/ha): 100
Plant response rating, Waterhemp ([3]; Preemergence, 250 g ai/ha): 100
Plant response rating, Waterhemp ([3]; Preemergence, 500 g ai/ha): 100
Plant response rating (0 to 100), Bermudagrass ([4]; 62 g ai/ha): 0
Plant response rating (0 to 100), Bermudagrass ([4]; 125 g ai/ha): 0
Plant response rating, Bermudagrass ([4]; 250 g ai/ha, scale 0 to 100): 0
Plant response rating, Bermudagrass ([4]; 500 g ai/ha, scale 0 to 100): 0
Plant response rating (0 to 100), Cocklebur ([5]; 62 g ai/ha): 15
Plant response rating (0 to 100), Cocklebur ([5]; 125 g ai/ha): 55
Plant response rating, Cocklebur ([5]; 250 g ai/ha, scale 0 to 100): 55
Plant response rating, Cocklebur ([5]; 500 g ai/ha, scale 0 to 100): 55
Plant response rating (0 to 100), Surinam Grass ([6]; 62 g ai/ha): 0
Plant response rating (0 to 100), Surinam Grass ([6]; 125 g ai/ha): 0
Plant response rating, Surinam Grass ([6]; 250 g ai/ha, scale 0 to 100): 0
Plant response rating, Surinam Grass ([6]; 500 g ai/ha, scale 0 to 100): 0
Goosegrass plant response rating ([7]; 62 g ai/ha): 0
Goosegrass plant response rating ([7]; 125 g ai/ha): 0
Goosegrass plant response rating ([7]; 250 g ai/ha): 0
Goosegrass plant response rating ([7]; 500 g ai/ha): 0
Ragweed plant response rating ([8]; 62 g ai/ha): 60
Ragweed plant response rating ([8]; 125 g ai/ha): 0
Ragweed plant response rating ([8]; 250 g ai/ha): 65
Ragweed plant response rating ([8]; 500 g ai/ha): 30
Surinam Grass plant response rating ([9]; 62 g ai/ha): 0
Surinam Grass plant response rating ([9]; 125 g ai/ha): 0
Surinam Grass plant response rating ([9]; 250 g ai/ha): 0
Surinam Grass plant response rating ([9]; 500 g ai/ha): 0
Velvetleaf plant response rating ([10]; 62 g ai/ha): 15
Velvetleaf plant response rating ([10]; 125 g ai/ha): 75
Velvetleaf plant response rating ([10]; 250 g ai/ha): 90
Velvetleaf plant response rating ([10]; 500 g ai/ha): 100

CCn1cc(C(=O)c2cccs2)c(-c2cc(Cl)cc(Cl)c2)n1 [Compound 18]
Plant response rating (0 to 100), Bermudagrass ([4]; 62 g ai/ha): 0
Plant response rating, Bermudagrass ([4]; 125 g ai/ha, scale 0 to 100): 0
Plant response rating, Bermudagrass ([4]; 250 g ai/ha, scale 0 to 100): 0
Plant response rating, Bermudagrass ([4]; 500 g ai/ha, scale 0 to 100): 5
Plant response rating (0 to 100), Cocklebur ([5]; 62 g ai/ha): 5
Plant response rating (0 to 100), Cocklebur ([5]; 125 g ai/ha): 5
Plant response rating, Cocklebur ([5]; 250 g ai/ha, scale 0 to 100): 15
Plant response rating, Cocklebur ([5]; 500 g ai/ha, scale 0 to 100): 20
Plant response rating (0 to 100), Surinam Grass ([6]; 62 g ai/ha): 5
Plant response rating (0 to 100), Surinam Grass ([6]; 125 g ai/ha): 5
Plant response rating, Surinam Grass ([6]; 250 g ai/ha, scale 0 to 100): 10
Plant response rating, Surinam Grass ([6]; 500 g ai/ha, scale 0 to 100): 10
Plant response rating, Smartweed ([11]; Postemergence, 500 g ai/ha): 20

CCn1cc(C(=O)c2ccccc2)c(-c2cc(Cl)cc(Cl)c2)n1 [Compound 31, [3-(3,5-dichlorophenyl)-1-ethyl-1H-pyrazol-4-yl]phenylmethanone]
Plant response rating, Bermudagrass ([4]; 16 g ai/ha): 0
Plant response rating (0 to 100), Bermudagrass ([4]; 31 g ai/ha): 0
Plant response rating (0 to 100), Bermudagrass ([4]; 62 g ai/ha): 0
Plant response rating (0 to 100), Bermudagrass ([4]; 125 g ai/ha): 0
Plant response rating, Cocklebur ([5]; 16 g ai/ha): 10
Plant response rating (0 to 100), Cocklebur ([5]; 31 g ai/ha): 20
Plant response rating (0 to 100), Cocklebur ([5]; 62 g ai/ha): 20
Plant response rating (0 to 100), Cocklebur ([5]; 125 g ai/ha): 25
Plant response rating, Surinam Grass ([6]; 16 g ai/ha): 5
Plant response rating (0 to 100), Surinam Grass ([6]; 62 g ai/ha): 5
Plant response rating (0 to 100), Surinam Grass ([6]; 125 g ai/ha): 5
Goosegrass plant response rating ([7]; 62 g ai/ha): 0
Goosegrass plant response rating ([7]; 125 g ai/ha): 0
Goosegrass plant response rating ([7]; 250 g ai/ha): 0
Goosegrass plant response rating ([7]; 500 g ai/ha): 0
Ragweed plant response rating ([8]; 62 g ai/ha): 0
Ragweed plant response rating ([8]; 125 g ai/ha): 35
Ragweed plant response rating ([8]; 250 g ai/ha): 50
Ragweed plant response rating ([8]; 500 g ai/ha): 80
Surinam Grass plant response rating ([9]; 62 g ai/ha): 0
Surinam Grass plant response rating ([9]; 125 g ai/ha): 0
Surinam Grass plant response rating ([9]; 250 g ai/ha): 0
Surinam Grass plant response rating ([9]; 500 g ai/ha): 0
Velvetleaf plant response rating ([10]; 62 g ai/ha): 65
Velvetleaf plant response rating ([10]; 125 g ai/ha): 50
Velvetleaf plant response rating ([10]; 250 g ai/ha): 80
Velvetleaf plant response rating ([10]; 500 g ai/ha): 80

COCC(=O)n1cc(C(=O)c2ccccc2)c(-c2cc(Cl)cc(Cl)c2)n1 [Compound 16, 1-[4-benzoyl-3-(3,5-dichlorophenyl)-1H-pyrazol-1-yl]-2-methoxyethanone]
Plant response rating (0 to 100), Barnyardgrass ([1]; Postemergence, 62 g ai/ha): 0
Plant response rating, Barnyardgrass ([1]; Postemergence, 125 g ai/ha, scale 0 to 100): 0
Plant response rating, Barnyardgrass [1, 12]: 0
Plant response rating, Barnyardgrass [1, 13]: 0
Plant response rating, Barnyardgrass ([1]; Preemergence, 62 g ai/ha): 0
Plant response rating, Barnyardgrass ([1]; Preemergence, 125 g ai/ha): 0
Plant response rating, Barnyardgrass ([1]; Preemergence, 250 g ai/ha): 0
Plant response rating, Barnyardgrass ([1]; Preemergence, 500 g ai/ha): 0
Plant response rating (0 to 100), Oilseed Rape ([2]; Postemergence, 62 g ai/ha): 50
Plant response rating (0 to 100), Oilseed Rape ([2]; Postemergence, 125 g ai/ha): 60
Plant response rating, Oilseed Rape [2, 12]: 90
Plant response rating, Oilseed Rape [2, 13]: 90
Plant response rating, Oilseed Rape ([2]; Preemergence, 62 g ai/ha): 0
Plant response rating, Oilseed Rape ([2]; Preemergence, 125 g ai/ha): 50
Plant response rating, Oilseed Rape ([2]; Preemergence, 250 g ai/ha): 100
Plant response rating, Oilseed Rape ([2]; Preemergence, 500 g ai/ha): 100
Plant response rating (0 to 100), Waterhemp ([3]; Postemergence, 62 g ai/ha): 90
Plant response rating (0 to 100), Waterhemp ([3]; Postemergence, 125 g ai/ha): 95
Plant response rating, Waterhemp [3, 12]: 98
Plant response rating, Waterhemp [3, 13]: 100
Plant response rating, Waterhemp ([3]; Preemergence, 62 g ai/ha): 100
Plant response rating, Waterhemp ([3]; Preemergence, 125 g ai/ha): 100
Plant response rating, Waterhemp ([3]; Preemergence, 250 g ai/ha): 100
Plant response rating, Waterhemp ([3]; Preemergence, 500 g ai/ha): 100
Goosegrass plant response rating ([7]; 31 g ai/ha): 0
Goosegrass plant response rating ([7]; 62 g ai/ha): 0
Goosegrass plant response rating ([7]; 125 g ai/ha): 0
Goosegrass plant response rating ([7]; 250 g ai/ha): 40
Goosegrass plant response rating ([7]; 500 g ai/ha): 50
Ragweed plant response rating ([8]; 31 g ai/ha): 0
Ragweed plant response rating ([8]; 62 g ai/ha): 0
Ragweed plant response rating ([8]; 125 g ai/ha): 85
Ragweed plant response rating ([8]; 250 g ai/ha): 90
Ragweed plant response rating ([8]; 500 g ai/ha): 98
Surinam Grass plant response rating ([9]; 31 g ai/ha): 0
Surinam Grass plant response rating ([9]; 62 g ai/ha): 0
Surinam Grass plant response rating ([9]; 125 g ai/ha): 0
Surinam Grass plant response rating ([9]; 250 g ai/ha): 0
Surinam Grass plant response rating ([9]; 500 g ai/ha): 0
Velvetleaf plant response rating ([10]; 31 g ai/ha): 0
Velvetleaf plant response rating ([10]; 62 g ai/ha): 40
Velvetleaf plant response rating ([10]; 125 g ai/ha): 85
Velvetleaf plant response rating ([10]; 250 g ai/ha): 100
Velvetleaf plant response rating ([10]; 500 g ai/ha): 100
Smartweed plant response rating ([11]; 31 g ai/ha): 0
Smartweed plant response rating ([11]; 62 g ai/ha): 0
Smartweed plant response rating ([11]; 125 g ai/ha): 100
Smartweed plant response rating ([11]; 250 g ai/ha): 100
Smartweed plant response rating ([11]; 500 g ai/ha): 100
